Consider one molecule from ChEMBL document CHEMBL3091352, “Synthesis and pharmacological evaluation of novel bisindolylalkanes analogues” (Bioorg Med Chem, 2013).

For this experiment, the species on record is Homo sapiens. Kind of experiment: Inhibition of human DNA topoisomerase-2 at 100 uM after 30 mins by agarose gel electrophoresis.

Usually inhibition stands for how much of the control response was suppressed. A low value points to a response near the control. `COc1cc([C@@H]2c3cc4c(cc3[C@@H](O[C@@H]3O[C@@H]5CO[C@@H](C)O[C@H]5[C@H](O)[C@H]3O)[C@H]3COC(=O)[C@H]23)OCO4)cc(OC)c1O` gave an inhibition of 90.3%.
